How the values were obtained:
[1] = background statement; cited from earlier work
[2] = Stability of closantel and levamisole combination at 30° C. (HPLC); type: physicochemical; conditions: closantel and levamisole combination incubated at 30° C.
Description: Stability of Closantel and Levamisole Combination at 30° C.
The mixture was analysed by HPLC at times zero, 3 and 12 months.

[3] = Pharmacokinetics of silymarin (plasma silybin a and b, HPLC); conditions: in vivo, 260 mg
Description: Pharmacokinetics of silymarin administered in various delivery systems, comparing a powdered extract of silymarin containing 28% silybin a and b and a silymarin:lecithin complex as described in Example 2 of silymarin containing the same amount of silybin a and b.
Silymarin was administered at a dose of 260 mg silybin a and b.
Blood samples were collected at 0, 2, 4, and 6 hours after administration and analysed by HPLC.
Silybin a and b were analysed as conjugated and unconjugated silybin a and b.

AUC of conjugated silybin A and B [3] [ng/h/mL]	AUC of free silybin A and B [3] [ng/h/mL]	Compound	absorption [1]	content at 0 months [2] [g %]	content at 3 months [2] [g %]	content at 12 months [2] [g %]
		[Cr] [chromium]	1-3%			
		Cc1cc(C(C#N)c2ccc(Cl)cc2)c(Cl)cc1NC(=O)c1cc(I)cc(I)c1O (stereo not drawn) [closantel]		3.75	3.72	3.69
		c1ccc([C@H]2CN3CCSC3=N2)cc1 [levamisole]		3.21	3.19	3.17
191	6	Silymarin				

From patent US20040167034A1, “Emulsion and dispersion formulations and method” (priority 2001, published 2004)
